Source: patent US10835533B2, “1 -((3S,4R)-4-(3-fluorophenyl)-1-(2-methoxyethyl)pyrrolidin-3-yl)-3-(4-methyl-3-(2-methylpyrimidin-5-yl)-1-phenyl-1H-pyrazol-5-yl)urea as a TrkA kinase inhibitor” (Array BioPharma Inc., priority 2014, dated 2020)

Assays:
[1] = IV clearance, 1 mg/kg IV, mouse; assay type: in vivo; conditions: for in vivo/in vitro correction factor: microsomal CLh divided by IV CL; for clearance: plasma, 1 mg/kg IV
Protocol: (§1) In Table 1, the predicted human IV clearance values were calculated from compound concentration-versus-time data in plasma collected from pre-clinical species (mouse, rat, dog and monkey) following 1 mg/kg intravenous (IV) doses. Concentrations of compound in plasma were measured by LC-MS (liquid chromatography-mass spectrometry). AUCinf values (Area under the plasma concentration-time curve for a dosing interval from time 0 extrapolated to infinity) for individual Cp/t curves (concentration of the drug in plasma at any time t) were determined using linear-trapezoidal integration and first order extrapolation from terminal points of the Cp/t curves, and clearance (CL) was calculated using Dose/AUCinf.

[2] = IV clearance, 1 mg/kg IV, rat; assay type: in vivo; conditions: for in vivo/in vitro correction factor: microsomal CLh divided by IV CL; for clearance: plasma, 1 mg/kg IV
Protocol: as §1
Each of Compound 1, Compound 2, and Compound 3 was formulated by adding the compound (dry) to 20% Trappsol® (hydroxypropyl Beta cyclodextrin; CDT, Inc.) (aq) pH 5.0 and vortexing until a homogeneous suspension (PO) or solution (IV) was achieved.
For intravenous dosing, animals were anesthetized with 3% isoflurane, balanced O2. 1 mg/kg of Compound 1, Compound 2, and Compound 3 was administered at a dose volume of 1 mL/kg to the lateral tail vein. Blood was drawn from the opposite lateral tail vein while the animal was under anesthesia (3% isoflurane balanced with O2, 0.2 mL/timepoint) into NaEDTA tubes (1.5% v/v) at the following time points: 1, 5, 15, 30 minutes, and 1, 2, 4, 8 and 24 hours, and mixed thoroughly.
A single 12-point calibration curve was prepared by first serially diluting (3-fold) a 40-μg/mL stock solution of Compound 1, Compound 2, and Compound 3 in DMSO to provide standard solutions. Plasma (20 μL) was then added to the extraction plate, and 2.5 μL of each standard solution was added to the naïve plasma. A stock solution of an internal standard (10.0 μL of 2.5 μg/mL in acetonitrile) subsequently was added to each standard and sample solution. Proteinaceous material was precipitated from 20 μL of plasma with the addition of 317.5 μL of acetonitrile for a total volume of 350 μL. Samples were vortex-mixed for 5 minutes and spun in an Allegra X-12R centrifuge (Beckman Coulter, Fullerton, Calif.) for 15 minutes at approximately 1,500×g at 4° C. A 100-μL aliquot of each supernatant was transferred via a 550 μL Personal Pipettor (Apricot Designs, Monrovia, Calif.) to 96-well plates and diluted 1:1 with HPLC grade water. The resulting plates were sealed with plate mats and the amount of Compound 1n the plasma was analyzed by LC-MS/MS.
The LC-MS/MS system was comprised of an HTC-PAL autosampler (Leap Technologies, Inc., Carrboro, N.C.), an HP1100 HPLC (Agilent Technologies Inc., Santa Clara, Calif.), and an API4000 triple quadrupole mass spectrometer (Applied Biosystems, Foster City, Calif.). Chromatographic retention of the analyte and internal standard was achieved using a Phenomenex® Synergi 4μ Hydro-RP 80A column (2.1×30 mm, 4 μm particle size; Phenomenex, Torrance, Calif.) in conjunction with gradient conditions using mobile phases A (10 mM ammonium acetate in aqueous 0.1% formic acid and 1% isopropyl alcohol) and B (10 mM ammonium acetate in 89.9% acetonitrile, 10% methanol, 0.1% formic acid). The total run time, including re-equilibration time, for a single injection was 3.5 minutes and the flow rate was 0.8 mL/minute. Solvent B was increased from 5 to 95% in 1.0 minute, held at 95% for 1.0 minute, and then decreased to 5% in 0.1 minute.
The total run time, including re-equilibration time, for a single injection was 3.5 minutes and the flow rate was 0.8 mL/min. Solvent B was increased from 5 to 95% in 1.0 minutes, held at 95% for 1.0 minute, and then decreased to 5% in 0.1 minute. Mass spectrometric detection of the analytes was accomplished using ESI+ ionization mode. Ion current was optimized during infusion of a stock solution of Compound 1, Compound 2, and Compound 3. Analyte responses were measured by multiple reaction monitoring (MRM) of transitions unique to each compound. […]

[3] = biological target: T1, NEK7 (Homo sapiens, UniProt Q8TDX7); assay: KinaseProfiler kinase profiling; assay type: biochemical; conditions: 10 μM, ATP near Km
T1 construct: purchased Millipore, Inc. (KinaseProfiler service)
Protocol: (§2) Compound 1 was tested for off-target kinase activity at a concentration of 10 μM by Millipore, Inc. in their KinaseProfiler™ service against all the kinases available in their full kinase panel. Compound 1 was run in duplicate at a concentration of ATP near the Km for each individual kinase according to Millipore's specifications. Data are reported as percent of control (POC) and are the average of the two replicates.

[4] = biological target: T2, IGF-1R (Homo sapiens, UniProt P08069); assay: KinaseProfiler kinase profiling; assay type: biochemical; conditions: 10 μM, ATP near Km
T2 construct: purchased Millipore, Inc. (KinaseProfiler service)
T2 sequence (P08069 31-1367): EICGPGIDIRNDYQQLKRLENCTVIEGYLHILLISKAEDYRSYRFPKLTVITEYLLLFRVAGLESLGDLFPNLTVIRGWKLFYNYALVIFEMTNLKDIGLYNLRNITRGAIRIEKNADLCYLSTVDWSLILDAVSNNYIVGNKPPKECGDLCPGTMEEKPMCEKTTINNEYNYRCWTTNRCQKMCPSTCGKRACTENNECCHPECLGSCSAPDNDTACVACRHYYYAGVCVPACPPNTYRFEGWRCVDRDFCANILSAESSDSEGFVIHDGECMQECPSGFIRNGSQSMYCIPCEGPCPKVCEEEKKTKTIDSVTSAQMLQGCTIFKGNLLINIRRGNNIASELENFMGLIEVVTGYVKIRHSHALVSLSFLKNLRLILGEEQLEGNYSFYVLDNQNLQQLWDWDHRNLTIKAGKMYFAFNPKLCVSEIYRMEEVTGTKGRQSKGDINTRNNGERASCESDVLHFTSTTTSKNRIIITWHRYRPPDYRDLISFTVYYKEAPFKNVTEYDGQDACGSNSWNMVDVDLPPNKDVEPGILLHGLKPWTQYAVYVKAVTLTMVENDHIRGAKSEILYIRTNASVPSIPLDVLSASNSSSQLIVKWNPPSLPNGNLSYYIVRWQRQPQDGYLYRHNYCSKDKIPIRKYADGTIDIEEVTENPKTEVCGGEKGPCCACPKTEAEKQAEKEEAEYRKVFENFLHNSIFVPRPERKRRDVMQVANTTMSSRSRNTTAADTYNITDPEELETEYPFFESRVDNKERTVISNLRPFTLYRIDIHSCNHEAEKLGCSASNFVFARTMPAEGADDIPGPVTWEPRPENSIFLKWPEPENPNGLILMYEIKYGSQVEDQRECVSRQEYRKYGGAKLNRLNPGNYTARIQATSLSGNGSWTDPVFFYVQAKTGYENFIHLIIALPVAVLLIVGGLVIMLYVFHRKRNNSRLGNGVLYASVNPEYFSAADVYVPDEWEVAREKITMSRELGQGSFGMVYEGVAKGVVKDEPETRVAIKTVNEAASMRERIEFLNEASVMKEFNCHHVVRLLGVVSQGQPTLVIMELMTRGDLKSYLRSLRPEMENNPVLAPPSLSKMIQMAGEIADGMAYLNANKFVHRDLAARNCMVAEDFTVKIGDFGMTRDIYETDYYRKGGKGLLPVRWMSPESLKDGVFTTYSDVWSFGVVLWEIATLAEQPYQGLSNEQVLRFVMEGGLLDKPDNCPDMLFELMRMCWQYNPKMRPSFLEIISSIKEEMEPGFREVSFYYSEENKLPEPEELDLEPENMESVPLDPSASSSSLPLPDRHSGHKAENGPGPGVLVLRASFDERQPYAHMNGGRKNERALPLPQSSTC
Protocol: as §2

[5] = biological target: T3, TrkA (Homo sapiens, UniProt P04629); assay: KinaseProfiler kinase profiling; assay type: biochemical; conditions: 10 μM, ATP near Km
T3 construct: purchased Millipore, Inc. (KinaseProfiler service)
Protocol: as §2

[6] = biological target: T4, ROCK-I (Homo sapiens, UniProt Q13464); assay: KinaseProfiler kinase profiling; assay type: biochemical; conditions: 10 μM, ATP near Km
T4 construct: purchased Millipore, Inc. (KinaseProfiler service)
Protocol: as §2

[7] = biological target: T5, CDK1/cyclinB (Homo sapiens, UniProt P06493); assay: KinaseProfiler kinase profiling; assay type: biochemical; conditions: 10 μM, ATP near Km
T5 construct: purchased Millipore, Inc. (KinaseProfiler service)
Protocol: as §2

[8] = biological target: T6, Bmx (Homo sapiens, UniProt P51813); assay: KinaseProfiler kinase profiling; assay type: biochemical; conditions: 10 μM, ATP near Km
T6 construct: purchased Millipore, Inc. (KinaseProfiler service)
T6 sequence (P51813 whole entry): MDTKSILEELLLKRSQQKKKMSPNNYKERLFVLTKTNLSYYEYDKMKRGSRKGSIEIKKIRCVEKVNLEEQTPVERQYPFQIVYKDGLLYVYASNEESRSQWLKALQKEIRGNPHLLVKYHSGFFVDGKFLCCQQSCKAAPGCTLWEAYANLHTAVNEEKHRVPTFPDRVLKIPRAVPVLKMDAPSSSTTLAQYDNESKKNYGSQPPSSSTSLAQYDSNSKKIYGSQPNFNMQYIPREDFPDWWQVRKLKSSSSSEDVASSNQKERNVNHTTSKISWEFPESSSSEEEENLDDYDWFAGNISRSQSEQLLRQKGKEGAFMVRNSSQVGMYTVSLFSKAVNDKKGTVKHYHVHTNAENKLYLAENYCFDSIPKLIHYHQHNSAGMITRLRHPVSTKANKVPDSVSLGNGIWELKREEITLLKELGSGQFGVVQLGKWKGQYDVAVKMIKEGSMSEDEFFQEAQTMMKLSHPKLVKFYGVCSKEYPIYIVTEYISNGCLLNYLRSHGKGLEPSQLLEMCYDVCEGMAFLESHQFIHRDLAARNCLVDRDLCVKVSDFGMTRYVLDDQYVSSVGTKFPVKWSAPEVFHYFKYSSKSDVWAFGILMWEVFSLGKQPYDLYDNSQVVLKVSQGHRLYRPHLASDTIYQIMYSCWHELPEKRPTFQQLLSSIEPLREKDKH
Protocol: as §2

[9] = biological target: T7, BrSK1 (Homo sapiens, UniProt Q8TDC3); assay: KinaseProfiler kinase profiling; assay type: biochemical; conditions: 10 μM, ATP near Km
T7 construct: purchased Millipore, Inc. (KinaseProfiler service)
T7 sequence (Q8TDC3 whole entry): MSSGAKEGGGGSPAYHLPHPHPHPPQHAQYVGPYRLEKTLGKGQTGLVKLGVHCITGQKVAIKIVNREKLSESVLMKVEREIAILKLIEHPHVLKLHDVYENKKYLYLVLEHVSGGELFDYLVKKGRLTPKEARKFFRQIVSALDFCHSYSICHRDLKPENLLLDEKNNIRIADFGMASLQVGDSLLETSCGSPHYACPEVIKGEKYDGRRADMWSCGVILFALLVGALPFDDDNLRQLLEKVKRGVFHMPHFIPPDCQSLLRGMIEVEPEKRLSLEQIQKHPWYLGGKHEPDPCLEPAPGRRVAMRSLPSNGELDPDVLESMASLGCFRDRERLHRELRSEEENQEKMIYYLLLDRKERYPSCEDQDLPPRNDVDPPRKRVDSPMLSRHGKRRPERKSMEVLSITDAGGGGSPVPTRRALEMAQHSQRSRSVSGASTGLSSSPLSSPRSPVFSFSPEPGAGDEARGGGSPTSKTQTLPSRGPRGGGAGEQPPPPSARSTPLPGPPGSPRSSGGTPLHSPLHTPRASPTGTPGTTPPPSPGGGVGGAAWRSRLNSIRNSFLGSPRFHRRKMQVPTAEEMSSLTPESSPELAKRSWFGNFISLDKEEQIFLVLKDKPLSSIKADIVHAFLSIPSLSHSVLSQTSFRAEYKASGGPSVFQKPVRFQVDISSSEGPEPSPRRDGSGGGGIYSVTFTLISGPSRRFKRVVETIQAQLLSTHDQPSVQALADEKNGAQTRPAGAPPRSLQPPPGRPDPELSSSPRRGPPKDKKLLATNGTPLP
Protocol: as §2

[10] = biological target: T8, TSSK1 (Homo sapiens, UniProt Q9BXA7); assay: KinaseProfiler kinase profiling; assay type: biochemical; conditions: 10 μM, ATP near Km
T8 construct: purchased Millipore, Inc. (KinaseProfiler service)
T8 sequence (Q9BXA7 whole entry): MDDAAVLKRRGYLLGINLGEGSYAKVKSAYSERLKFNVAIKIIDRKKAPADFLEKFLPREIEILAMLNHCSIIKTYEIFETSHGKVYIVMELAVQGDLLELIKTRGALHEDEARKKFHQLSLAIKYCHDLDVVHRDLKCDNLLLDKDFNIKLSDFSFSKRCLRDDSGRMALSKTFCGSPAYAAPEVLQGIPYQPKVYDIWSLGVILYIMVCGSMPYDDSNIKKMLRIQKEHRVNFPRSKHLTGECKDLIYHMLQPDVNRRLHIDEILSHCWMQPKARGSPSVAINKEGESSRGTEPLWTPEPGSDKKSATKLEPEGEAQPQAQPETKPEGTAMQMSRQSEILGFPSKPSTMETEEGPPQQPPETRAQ
Protocol: as §2

[11] = biological target: T9, PKCtheta (Homo sapiens, UniProt Q04759); assay: KinaseProfiler kinase profiling; assay type: biochemical; conditions: 10 μM, ATP near Km
T9 construct: purchased Millipore, Inc. (KinaseProfiler service)
T9 sequence (Q04759 whole entry): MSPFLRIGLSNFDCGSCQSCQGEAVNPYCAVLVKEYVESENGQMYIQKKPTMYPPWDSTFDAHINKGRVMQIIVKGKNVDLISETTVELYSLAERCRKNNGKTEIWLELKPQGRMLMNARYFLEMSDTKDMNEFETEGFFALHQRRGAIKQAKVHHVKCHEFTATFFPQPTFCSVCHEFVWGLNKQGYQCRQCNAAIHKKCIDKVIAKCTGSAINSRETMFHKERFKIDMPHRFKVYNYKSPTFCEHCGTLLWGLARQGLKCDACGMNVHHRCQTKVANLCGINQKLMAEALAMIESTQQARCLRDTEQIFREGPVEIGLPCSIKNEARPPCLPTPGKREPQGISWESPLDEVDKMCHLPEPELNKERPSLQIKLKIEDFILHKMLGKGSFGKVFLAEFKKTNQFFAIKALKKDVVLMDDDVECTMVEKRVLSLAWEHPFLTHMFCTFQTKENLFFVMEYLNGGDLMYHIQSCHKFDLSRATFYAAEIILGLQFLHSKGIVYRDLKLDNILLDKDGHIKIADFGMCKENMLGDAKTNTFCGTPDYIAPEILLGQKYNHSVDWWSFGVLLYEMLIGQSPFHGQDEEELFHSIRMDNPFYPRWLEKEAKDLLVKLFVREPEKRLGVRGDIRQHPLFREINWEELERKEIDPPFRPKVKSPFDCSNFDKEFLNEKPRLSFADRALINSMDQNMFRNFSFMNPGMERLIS
Protocol: as §2

[12] = biological target: T10, IRR (Homo sapiens, UniProt P14616); assay: KinaseProfiler kinase profiling; assay type: biochemical; conditions: 10 μM, ATP near Km
T10 construct: purchased Millipore, Inc. (KinaseProfiler service)
Protocol: as §2

[13] = biological target: T11, cloned hERG potassium channels expressed in human embryonic kidney cells (HEK293) (Homo sapiens, UniProt Q12809); assay: FASTPatch hERG Assay (Example F); assay type: cell-based; conditions: HEK293, QPatch HT, room temperature
T11 construct: expressed in transfected cells; host or cells: HEK293
T11 sequence (Q12809 whole entry): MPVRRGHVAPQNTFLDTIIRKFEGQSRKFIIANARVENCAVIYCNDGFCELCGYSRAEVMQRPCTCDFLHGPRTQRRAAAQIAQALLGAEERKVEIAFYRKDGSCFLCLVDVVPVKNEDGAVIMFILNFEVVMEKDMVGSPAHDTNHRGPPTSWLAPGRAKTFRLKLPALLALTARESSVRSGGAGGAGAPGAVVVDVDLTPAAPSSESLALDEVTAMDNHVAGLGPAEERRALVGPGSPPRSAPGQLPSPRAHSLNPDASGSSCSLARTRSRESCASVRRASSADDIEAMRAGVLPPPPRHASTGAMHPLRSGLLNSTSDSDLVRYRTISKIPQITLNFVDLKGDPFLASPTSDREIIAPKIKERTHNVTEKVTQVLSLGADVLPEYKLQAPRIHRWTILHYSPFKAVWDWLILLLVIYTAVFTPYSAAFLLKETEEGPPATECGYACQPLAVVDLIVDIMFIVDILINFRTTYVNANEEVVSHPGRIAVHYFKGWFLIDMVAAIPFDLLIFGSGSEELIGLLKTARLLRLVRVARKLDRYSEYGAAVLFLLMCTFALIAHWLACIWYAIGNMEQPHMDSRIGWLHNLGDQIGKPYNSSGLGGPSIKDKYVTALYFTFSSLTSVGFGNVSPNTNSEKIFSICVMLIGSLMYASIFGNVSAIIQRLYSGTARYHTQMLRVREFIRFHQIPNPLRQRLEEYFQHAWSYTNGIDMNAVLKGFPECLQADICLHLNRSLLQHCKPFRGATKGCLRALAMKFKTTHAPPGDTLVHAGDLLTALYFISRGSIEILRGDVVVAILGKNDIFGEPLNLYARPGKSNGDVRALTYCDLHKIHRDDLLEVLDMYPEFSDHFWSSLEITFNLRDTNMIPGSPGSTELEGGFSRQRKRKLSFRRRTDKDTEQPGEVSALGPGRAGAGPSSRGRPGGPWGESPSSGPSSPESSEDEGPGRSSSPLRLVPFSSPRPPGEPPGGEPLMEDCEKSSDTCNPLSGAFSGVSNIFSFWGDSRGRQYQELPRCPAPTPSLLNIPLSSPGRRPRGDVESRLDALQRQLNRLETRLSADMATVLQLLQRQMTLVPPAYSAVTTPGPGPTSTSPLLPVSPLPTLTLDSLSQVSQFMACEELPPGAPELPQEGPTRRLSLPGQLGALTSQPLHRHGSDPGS
Protocol: This assay was used to measure the effects of Compound 1, Compound 2, and Compound 3 on cloned hERG potassium channels expressed in human embryonic kidney cells (HEK293). The in vitro effects of Compound 1, Compound 2, and Compound 3 on the hERG (human ether-a-go-go-related gene) potassium channel current (a surrogate for IKr, the rapidly activating, delayed rectifier cardiac potassium current) expressed in mammalian cells were evaluated at room temperature using the QPatch HT® (Sophion Bioscience A/S, Denmark), an automatic parallel patch clamp system. The test article was evaluated at 0.3, 1, 3, 10, 30 and 100 μM with each concentration tested in three or more cells (n≥3). The duration of exposure to each test article concentration was 3 minutes. A positive control confirmed the sensitivity of the test system to hERG inhibition.

SMILES	in vivo/in vitro correction factor [1]	clearance [1]	in vivo/in vitro correction factor [2]	clearance [2]	Avg POC [3]	Avg POC [4]	Avg POC [5]	Avg POC [6]	Avg POC [7]	Avg POC [8]	Avg POC [9]	Avg POC [10]	Avg POC [11]	Avg POC [12]	IC50 [13]
COCCN1C[C@@H](NC(=O)Nc2c(C)c(-c3cnn(C)c3)nn2-c2ccccc2)[C@H](c2ccc(F)cc2)C1 [Compound 3, 1-(1′,4-dimethyl-1-phenyl-1H,1′H-[3,4′-bipyrazol]-5-yl)-3-((3S,4R)-4-(4-fluorophenyl)-1-(2-methoxyethyl)pyrrolidin-3-yl)urea]	0.85	71 mL/min/kg	0.88	26 mL/min/kg											
COCCN1C[C@@H](NC(=O)Nc2c(C)c(-c3cnc(C)nc3)nn2-c2ccccc2)[C@H](c2cccc(F)c2)C1 [Compound 1, 1-((3S,4R)-4-(3-fluorophenyl)-1-(2-methoxyethyl)pyrrolidin-3-yl)-3-(4-methyl-3-(2-methylpyrimidin-5-yl)-1-phenyl-1H-pyrazol-5-yl)urea]			1.47	15 mL/min/kg	104 POC	80.5 POC	2.5 POC	98.5 POC	108 POC	91.5 POC	98 POC	104 POC	128.5 POC	104.5 POC	20 µM
COCCN1C[C@@H](NC(=O)Nc2c(C)c(-c3cnc(C)nc3)nn2-c2ccccc2)[C@H](c2ccc(F)c(F)c2)C1 [Compound 2, 1-((3S,4R)-4-(3,4-difluorophenyl)-1-(2-methoxyethyl)pyrrolidin-3-yl)-3-(4-methyl-3-(2-methylpyrimidin-5-yl)-1-phenyl-1H-pyrazol-5-yl)urea]	1.36	42 mL/min/kg	0.76	29 mL/min/kg											6.9 µM
